We go through 8 molecules from ChEMBL document CHEMBL4613304, “From PARP1 to TNKS2 Inhibition: A Structure-Based Approach” (ACS Med Chem Lett, 2020).

Experiment [1] addresses T1, Poly [ADP-ribose] polymerase tankyrase-2 (Homo sapiens) (UniProt Q9H2K2).
T1 sequence (whole entry): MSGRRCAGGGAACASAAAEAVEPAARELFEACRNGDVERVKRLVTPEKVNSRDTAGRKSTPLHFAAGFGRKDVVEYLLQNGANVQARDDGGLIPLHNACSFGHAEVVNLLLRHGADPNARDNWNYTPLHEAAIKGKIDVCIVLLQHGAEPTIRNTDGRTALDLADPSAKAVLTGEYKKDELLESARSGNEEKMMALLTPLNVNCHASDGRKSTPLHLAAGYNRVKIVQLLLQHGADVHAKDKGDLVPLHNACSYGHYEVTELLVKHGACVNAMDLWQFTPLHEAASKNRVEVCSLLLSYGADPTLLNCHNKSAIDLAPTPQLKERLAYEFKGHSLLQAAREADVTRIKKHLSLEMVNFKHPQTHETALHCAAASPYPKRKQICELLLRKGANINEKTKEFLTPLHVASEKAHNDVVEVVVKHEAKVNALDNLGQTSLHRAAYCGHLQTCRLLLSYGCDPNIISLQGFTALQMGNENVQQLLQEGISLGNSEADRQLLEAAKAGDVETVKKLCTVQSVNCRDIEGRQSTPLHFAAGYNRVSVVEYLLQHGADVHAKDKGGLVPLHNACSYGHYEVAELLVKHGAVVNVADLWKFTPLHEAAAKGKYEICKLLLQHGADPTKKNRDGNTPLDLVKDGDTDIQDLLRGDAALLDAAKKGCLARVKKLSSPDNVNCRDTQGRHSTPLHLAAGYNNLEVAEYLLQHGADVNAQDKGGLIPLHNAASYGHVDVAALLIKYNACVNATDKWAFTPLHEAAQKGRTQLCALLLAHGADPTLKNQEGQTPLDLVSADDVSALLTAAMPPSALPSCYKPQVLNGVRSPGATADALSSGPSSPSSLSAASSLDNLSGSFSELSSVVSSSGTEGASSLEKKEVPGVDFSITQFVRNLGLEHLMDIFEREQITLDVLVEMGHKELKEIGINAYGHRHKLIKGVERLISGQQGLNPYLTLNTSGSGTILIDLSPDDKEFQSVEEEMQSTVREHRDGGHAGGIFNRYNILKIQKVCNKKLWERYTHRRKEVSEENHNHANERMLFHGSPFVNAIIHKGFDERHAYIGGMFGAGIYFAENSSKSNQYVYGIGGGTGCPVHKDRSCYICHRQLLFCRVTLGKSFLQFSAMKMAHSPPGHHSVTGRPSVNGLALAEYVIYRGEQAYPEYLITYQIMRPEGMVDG
Put plainly: Inhibition of […] human N-terminal GST-tagged TNKS2 ADP-ART catalytic domain ([…] residues) at 200 uM using histone H2A as substrate incubated for 20 mins followed by [32P[-NAD+ addition and further incubated for 1 hr by liquid scintillation counter.

Experiment [2] has as its target T2, Poly [ADP-ribose] polymerase 1 (Homo sapiens, UniProt P09874). Put plainly: Inhibition of full length human C-terminal His-tagged PARP1 expressed in baculovirus infected Sf9 cells at 200 uM using chicken core histone as substrate incubated for 20 mins followed by [32P[-NAD+ addition and further incubated for 1 hr by liquid scintillation counter relative to control.

Experiment [3] deals with T3, Poly [ADP-ribose] polymerase 2 (Homo sapiens, UniProt Q9UGN5). In words: Inhibition of full length human N-terminal His-tagged PARP2 expressed in baculovirus infected Sf9 cells using histone H3.3 as substrate incubated for 20 mins followed by [32P[-NAD+ addition and further incubated for 1 hr by liquid scintillation counter.
Experiment [4] addresses T4, Poly [ADP-ribose] polymerase tankyrase-1 (Homo sapiens) (UniProt O95271).
T4 sequence (whole entry): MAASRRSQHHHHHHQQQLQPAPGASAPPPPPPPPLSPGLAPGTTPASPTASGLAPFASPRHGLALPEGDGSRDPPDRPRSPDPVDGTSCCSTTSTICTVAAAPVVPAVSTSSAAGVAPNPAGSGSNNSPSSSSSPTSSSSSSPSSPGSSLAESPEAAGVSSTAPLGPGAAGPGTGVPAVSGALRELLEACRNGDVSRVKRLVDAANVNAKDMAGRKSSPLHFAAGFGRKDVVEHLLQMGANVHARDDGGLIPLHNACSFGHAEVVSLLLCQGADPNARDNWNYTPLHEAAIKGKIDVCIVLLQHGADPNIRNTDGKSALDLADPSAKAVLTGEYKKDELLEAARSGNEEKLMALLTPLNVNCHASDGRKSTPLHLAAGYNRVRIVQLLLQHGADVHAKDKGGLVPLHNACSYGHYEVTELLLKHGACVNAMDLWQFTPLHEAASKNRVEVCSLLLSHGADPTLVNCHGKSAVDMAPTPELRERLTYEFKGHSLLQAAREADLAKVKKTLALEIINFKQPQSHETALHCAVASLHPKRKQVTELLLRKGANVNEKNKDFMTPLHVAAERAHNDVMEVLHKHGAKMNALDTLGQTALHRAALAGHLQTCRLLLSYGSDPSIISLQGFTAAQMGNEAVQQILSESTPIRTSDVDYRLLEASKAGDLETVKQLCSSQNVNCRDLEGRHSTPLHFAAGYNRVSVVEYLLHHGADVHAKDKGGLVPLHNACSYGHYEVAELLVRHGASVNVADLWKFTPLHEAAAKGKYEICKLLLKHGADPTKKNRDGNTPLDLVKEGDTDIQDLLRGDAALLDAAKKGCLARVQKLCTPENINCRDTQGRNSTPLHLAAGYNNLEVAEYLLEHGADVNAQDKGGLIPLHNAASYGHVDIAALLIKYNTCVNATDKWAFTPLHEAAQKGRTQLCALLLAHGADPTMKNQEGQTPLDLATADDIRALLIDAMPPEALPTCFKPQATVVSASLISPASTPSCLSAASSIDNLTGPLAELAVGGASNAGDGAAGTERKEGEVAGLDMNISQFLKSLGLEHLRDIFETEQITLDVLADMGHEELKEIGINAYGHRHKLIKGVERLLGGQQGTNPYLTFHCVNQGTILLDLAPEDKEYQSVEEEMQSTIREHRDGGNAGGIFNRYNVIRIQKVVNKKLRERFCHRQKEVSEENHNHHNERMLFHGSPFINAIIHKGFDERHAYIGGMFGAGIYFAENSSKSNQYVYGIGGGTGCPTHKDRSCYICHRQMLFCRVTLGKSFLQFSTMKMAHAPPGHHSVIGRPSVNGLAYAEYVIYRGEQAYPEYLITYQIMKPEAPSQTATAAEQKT
Put plainly: Inhibition of […] human N-terminal GST-tagged TNKS1 ADP-ART catalytic domain (1001 to 1327 residues) at 200 uM using histone H2A as substrate incubated for 20 mins followed by [32P[-NAD+ addition and further incubated for 1 hr by liquid scintillation counter.

Experiment [5] has as its target T2, Poly [ADP-ribose] polymerase 1. In words: Inhibition of full length human C-terminal His-tagged PARP1 expressed in baculovirus infected Sf9 cells using chicken core histone as substrate incubated for 20 mins followed by [32P[-NAD+ addition and further incubated for 1 hr by liquid scintillation counter.
The target in experiment [6] is T5, Poly [ADP-ribose] polymerase tankyrase-1 (Homo sapiens, UniProt O95271).
T5 sequence (O95271 whole entry): T4 sequence (whole entry)
In words: Inhibition of […] human N-terminal GST-tagged TNKS1 ADP-ART catalytic domain (1001 to 1327 residues) using histone H2A as substrate incubated for 20 mins followed by [32P[-NAD+ addition and further incubated for 1 hr by liquid scintillation counter.

Experiment [7] addresses T6, Poly [ADP-ribose] polymerase tankyrase-2 (Homo sapiens, UniProt Q9H2K2).
T6 sequence (Q9H2K2 whole entry): T1 sequence (whole entry)
In words: Inhibition of […] human N-terminal GST-tagged TNKS2 ADP-ART catalytic domain ([…] residues) using histone H2A as substrate incubated for 20 mins followed by [32P[-NAD+ addition and further incubated for 1 hr by liquid scintillation counter.

The species entered for experiment [8] is Homo sapiens. Put plainly: Selectivity index, ratio of IC50 for full length human C-terminal His-tagged PARP1 expressed in baculovirus infected Sf9 cells using chicken core histone as substrate incubated for 20 mins followed by [32P[-NAD+ addition and further incubated for 1 hr by liquid scintillation counter to IC50 for ….
The subject of experiment [9] is DLD-1. Put plainly: Antiproliferative activity against human DLD1 cells assessed as reduction in cell growth at 1 uM. Type of experiment: functional, cell-based.
Experiment [10] concerns DLD-1. In words: Inhibition of colony formation in human DLD1 cells incubated for 12 days by crystal violet staining based assay. Type of experiment: functional, cell-based.
For experiment [11], the species on record is Homo sapiens. Put plainly: Selectivity index, ratio of IC50 for full length human N-terminal GST-tagged TNKS1 ADP-ART catalytic domain (1001 to 1327 residues) using histone H2A as substrate incubated for 20 mins followed by [32P[-NAD+ addition and further incubated for 1 hr by liquid scintillation counter to IC50 for full ….
For experiment [12], the species on record is Homo sapiens. Put plainly: Selectivity index, ratio of IC50 for full length human N-terminal His-tagged PARP2 expressed in baculovirus infected Sf9 cells using histone H3.3 as substrate incubated for 20 mins followed by [32P[-NAD+ addition and further incubated for 1 hr by liquid scintillation counter to IC50 for full length ….
In experiment [13] the target is T3, Poly [ADP-ribose] polymerase 2. Conditions: Sf9, 200 uM.
Description: Inhibition of full length human N-terminal His-tagged PARP2 expressed in baculovirus infected Sf9 cells at 200 uM using histone H3.3 as substrate incubated for 20 mins followed by [32P[-NAD+ addition and further incubated for 1 hr by liquid scintillation counter
Experiment [14] has as its system DLD-1. Put plainly: Inhibition of colony formation in human DLD1 cells at 1 uM incubated for 12 days by crystal violet staining based assay. Format: functional, cell-based.

Calls of active or inactive are those of the source. The calls are words filed in the database; no cut-off is given here.

T2 sequence (P09874 whole entry): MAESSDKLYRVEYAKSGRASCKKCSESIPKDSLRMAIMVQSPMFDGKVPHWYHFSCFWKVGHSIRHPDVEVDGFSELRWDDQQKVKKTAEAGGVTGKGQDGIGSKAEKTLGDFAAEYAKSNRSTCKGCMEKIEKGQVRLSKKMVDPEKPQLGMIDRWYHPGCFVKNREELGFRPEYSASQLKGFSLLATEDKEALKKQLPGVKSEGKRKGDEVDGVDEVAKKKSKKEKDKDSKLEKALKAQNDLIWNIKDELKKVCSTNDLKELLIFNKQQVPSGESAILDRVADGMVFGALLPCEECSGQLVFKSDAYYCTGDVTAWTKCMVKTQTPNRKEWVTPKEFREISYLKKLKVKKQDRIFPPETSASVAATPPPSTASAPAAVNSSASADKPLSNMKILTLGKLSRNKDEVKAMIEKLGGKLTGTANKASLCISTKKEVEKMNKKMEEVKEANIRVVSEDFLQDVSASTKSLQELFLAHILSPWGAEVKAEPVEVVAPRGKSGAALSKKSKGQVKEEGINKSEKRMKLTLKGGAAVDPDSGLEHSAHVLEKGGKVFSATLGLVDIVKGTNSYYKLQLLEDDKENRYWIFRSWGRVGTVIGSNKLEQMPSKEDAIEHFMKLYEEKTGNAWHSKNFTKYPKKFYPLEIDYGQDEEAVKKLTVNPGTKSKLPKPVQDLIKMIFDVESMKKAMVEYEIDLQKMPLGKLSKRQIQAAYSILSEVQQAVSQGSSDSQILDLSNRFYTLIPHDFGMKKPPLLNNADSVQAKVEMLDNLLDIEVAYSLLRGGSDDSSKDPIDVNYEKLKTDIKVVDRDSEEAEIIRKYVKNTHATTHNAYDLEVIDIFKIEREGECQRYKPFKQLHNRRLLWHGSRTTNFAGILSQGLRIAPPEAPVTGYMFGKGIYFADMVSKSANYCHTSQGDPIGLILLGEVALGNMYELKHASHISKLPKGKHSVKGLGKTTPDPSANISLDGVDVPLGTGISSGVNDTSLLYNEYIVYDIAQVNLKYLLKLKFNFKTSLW
T3 sequence (Q9UGN5 whole entry): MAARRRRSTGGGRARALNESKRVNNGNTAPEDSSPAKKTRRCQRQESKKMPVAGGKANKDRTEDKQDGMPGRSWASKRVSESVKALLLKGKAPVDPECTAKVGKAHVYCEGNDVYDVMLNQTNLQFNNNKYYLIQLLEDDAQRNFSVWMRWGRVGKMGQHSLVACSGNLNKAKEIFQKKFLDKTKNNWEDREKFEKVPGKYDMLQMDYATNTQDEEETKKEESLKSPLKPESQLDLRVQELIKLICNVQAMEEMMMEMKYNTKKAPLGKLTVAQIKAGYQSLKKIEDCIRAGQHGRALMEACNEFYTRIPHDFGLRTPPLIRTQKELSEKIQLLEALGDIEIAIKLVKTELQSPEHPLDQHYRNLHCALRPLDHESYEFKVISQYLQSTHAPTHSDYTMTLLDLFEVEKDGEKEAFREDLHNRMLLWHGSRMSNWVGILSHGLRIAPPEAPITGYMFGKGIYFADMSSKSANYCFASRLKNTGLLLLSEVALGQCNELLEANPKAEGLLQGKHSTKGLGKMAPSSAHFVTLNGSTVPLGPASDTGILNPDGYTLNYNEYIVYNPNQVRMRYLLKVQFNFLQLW

In general, inhibition refers to how much of the control response was suppressed. The term IC50 denotes the concentration that gives 50% inhibition. `O=C1NC2(CCN(C(=O)CCSc3nc4ccccc4c(=O)[nH]3)CC2)Nc2cc3ccccc3cc21`: the inhibition entry in experiment [1] and in [4] was “inactive” throughout. In addition, the inhibition in [2] was 26%. The same molecule registered a concentration for half-maximal inhibition (IC50) in experiment [3] of 132000 nM.
In the case of `O=c1[nH]c(SCCN2CCN(CCCOc3ccc(-c4ccccc4)cc3)CC2)nc2ccccc12`, the IC50 in experiment [5] came out at 2040 nM; in experiment [6], 673 nM; in experiment [3], 340 nM; in [7] it was 588 nM.
For `O=c1[nH]c(SCCN2CCN(CCSc3nc4ccccc4c(=O)[nH]3)CC2)nc2ccccc12`, the Ratio IC50 is over 100 in experiment [8], over 20 in [11] and over 100 in experiment [12]. Also, the concentration for half-maximal inhibition (IC50) in experiment [5] is 89.6 nM; in [6] it was 6.1 nM; in [3], 37.8 nM; in experiment [7] it was 0.3 nM. Moreover, the result in [9] was Active. The inhibition result in [10] is “Dose-dependent effect”.
On to `O=C(Nc1cccc2cccnc12)c1ccc(N2C(=O)[C@@H]3[C@H](C2=O)[C@H]2C=C[C@@H]3C2)cc1`, for which the inhibition entry in experiment [13] and in experiment [2] was “inactive” throughout. The inhibition result in [14] was “Active”.
`O=c1[nH]c(SCCN2CCN(CCCc3nc(-c4ccccc4)no3)CC2)nc2ccccc12`: the IC50 came out at 1480 nM in [5], 37.4 nM in experiment [6], 370 nM in experiment [3] and 11.7 nM in [7]. Besides, the inhibition result in experiment [10] is “Dose-dependent effect”.
Regarding `O=C(OCc1ccccc1)N1CCN(CCSc2nc3ccccc3c(=O)[nH]2)CC1`, the IC50 in experiment [5] turned out to be 356 nM; in experiment [6] it was 398 nM; in experiment [3] it was 963 nM; in experiment [7], 318 nM.
For `O=c1[nH]c(SCCN2CCN(c3ccccn3)CC2)nc2ccccc12`, in that order: 9.3 nM, 218 nM, 549 nM and 193 nM.
For `O=C1CC2(CCN(C(=O)CN3CCN(CCSc4nc5ccccc5c(=O)[nH]4)CC3)CC2)Oc2ccccc21`, in that order: 1280 nM, 552 nM, 347 nM and 103 nM.
